Assay results reported in patent US9359308B2, “Pyrazine kinase inhibitors” (Portola Pharmaceuticals, Inc., priority 2011, dated 2016).
pIC50: −log10 of the molar value.

Target: T1, full length active recombinant SYK enzyme (Homo sapiens, UniProt P43405)
T1 construct: full length active recombinant SYK enzyme (Millipore, Calif.); purchased Millipore
Test: Inhibition of Syk tyrosine phosphorylation activity (LANCE TR-FRET kinase assay)
Format: biochemical
Conditions: activity in the Syk assays, class symbols
Method in brief: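 IC50 was derived by non-linear regression of TR-FRET signal (Eu-W1024-PY100 donor, streptavidin-APC acceptor) read 1 h after EDTA quench. The kinase step ran 1 h at room temperature with 1 nM full-length SYK, 550 nM biotinylated DEEDYESP substrate and 100 μM ATP in Tris pH 7.5/MgCl2/DTT at 3% final DMSO.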

| Structure (SMILES) | pIC50 |
| --- | --- |
| NC(=O)c1ncc(N[C@@H]2CCCC(F)(F)[C@@H]2N)nc1Nc1csc2ncccc12 [Example 448, 5-(((1R,2R)-2-amino-3,3-difluorocyclohexyl)amino)-3-(thieno[2,3-b]pyridin-3-ylamino)pyrazine-2-carboxamide] | 8.00 to 9.00 |
| NC(=O)c1ncc(N[C@@H]2CCCC[C@@H]2N)nc1Nc1cncs1 [Example 449, 5-(((1R,2S)-2-aminocyclohexyl)amino)-3-(thiazol-5-ylamino)pyrazine-2-carboxamide] | < 6.00 |
| NC(=O)c1ncc(N[C@@H]2CCCC(F)(F)[C@@H]2N)nc1Nc1ccc2c(c1)COCC2 [Example 451, 5-(((1R,2R)-2-amino-3,3-difluorocyclohexyl)amino)-3-(isochroman-7-ylamino)pyrazine-2-carboxamide] | 8.00 to 9.00 |
| NC(=O)c1ncc(N[C@@H]2CCCC(F)(F)[C@@H]2N)nc1Nc1ccc2c(c1)CCOC2 [Example 453, 5-(((1R,2R)-2-amino-3,3-difluorocyclohexyl)amino)-3-(isochroman-6-ylamino)pyrazine-2-carboxamide] | 8.00 to 9.00 |

Now from value to compound:

| pIC50 | Structure (SMILES) |
| --- | --- |
| 7.00 to 8.00 | CC[C@@H](Nc1cnc(C(N)=O)c(Nc2cccc(-c3ncco3)c2)n1)C(N)=O [Example 450, (R)-5-((1-amino-1-oxobutan-2-yl)amino)-3-((3-(oxazol-2-yl)phenyl)amino)pyrazine-2-carboxamide] |
| 8.00 to 9.00 | NC(=O)c1ncc(N[C@@H]2CCCC(F)(F)[C@@H]2N)nc1Nc1ccc2c(c1)COC2 [Example 452, 5-(((1R,2R)-2-amino-3,3-difluorocyclohexyl)amino)-3-((1,3-dihydroisobenzofuran-5-yl)amino)pyrazine-2-carboxamide] |
| 7.00 to 8.00 | NC(=O)c1ncc(N[C@@H]2CCCC(F)(F)[C@@H]2N)nc1Nc1ccc2c(c1)CCC2 [Example 454, 5-(((1R,2R)-2-amino-3,3-difluorocyclohexyl)amino)-3-((2,3-dihydro-1H-inden-5-yl)amino)pyrazine-2-carboxamide] |
